In experiment [1] the test system is LTG-resistant amygdala kindled seizures. The experiment is described as follows: Lamotrigine (LTG) resistant amygdala kindled seizure rat model. Format: in vivo. As to conditions: for Duration (sec) ± SD (afterdischarge) / N/F, number of animals active over the number tested / Seizure Score ± SEM: 0.25 hr. The text has this:
The LTG-resistant amygdala kindled rat model is useful for not only identifying compounds effective against secondarily generalized partial seizures, but also allows for the differentiation of compounds that may be effective in therapy-resistant patients. […] Conversely, valproate can both prevent kindling development and block the expression of fully kindled seizures. The addition of the traditional ASDs, carbamazepine or lamotrigine, during the development of kindled seizures in this model will ultimately impair the effectiveness of lamotrigine against a fully expressed kindled seizure. […] This model may serve as a means to identify compounds which may be effective against therapy-resistant seizures. Anesthetized male Sprague-Dawley rats (250-300 g) are surgically implanted with an electrode into the left amygdala. Animals are then allowed to recover for one week before commencing kindling. The kindling procedure consists of delivering a 200 μAmp stimulus (suprathreshold) daily until all animals in both treatment groups display consistent Stage 4 or 5 seizures. One week after all animals are kindled, the animals receive a challenge dose of LTG (30 mg/kg, i.p.) before being stimulated to confirm the LTG sensitivity of the vehicle-treated control animals, as well as the LTG-resistance of the LTG-treated group. The animals are then allowed a washout of 3 days. On day 3 of the washout, the animals are pre-stimulated to ensure recovery of the fully kindled seizure. On day 4, kindled rats are challenged with a dose of an investigational agent (the dose that produced minimal motor impairment) and then challenged with the kindling stimulus at the predetermined TPE of the investigational drug. […] For this study, the ability of a candidate substance to reduce afterdischarge duration (ADD) and behavioral seizure scores (BSS) is quantitated by varying the dose between 0 and 100% effect. Unlike other acute seizure tests conducted by the ETSP, each kindled rat is allowed at least 3-4 days between tests to “washout” any investigational compound after testing. The average seizure scores±S.E.M. and afterdischarge duration (ADD) are noted, as are the number of animals protected from seizure (defined as a Racine score<3) over the number of animals tested.
The following procedure is used for surgical implantation of Electrodes. Male Spraque-Dawey rats are anesthetized using 1-3% isoflurane or a Ketamine/Xylazine cocktail. Ketamine is provided as 100 mg/ml solution, and dose 50 mg/kg given i.p. Xylazine is provided as 100 mg/ml solution, and dose 20 mg/kg given i.p. Mix the two solutions together in one syringe and administer i.p as one injection. Rat is monitored through surgery. If the rat is responsive to a tail pinch administer half the dose of Ketamine/xylazine or increase the isoflurane percentage. Administer buprenorphine at 0.02 mg/kg s.c. for pain management. An electric razor is used to shave the surface of the head. The rat is placed on an external heat source on the stereotaxic apparatus such that the height of the incisor bar and the positioning of the ear bars ensure consistency with the reference atlas. The entire scalp is scrubbed with betadine (3×) and wiped with alcohol. Ophthalmic ointment is applied to each eye. All instruments are sterilized via autoclave before beginning surgery. During surgery instruments are placed on a sterile drape. For subsequent surgeries on the same day, instruments can be placed into the hot bead sterilizer between surgeries. Stainless steel screws and electrodes are sterilized in 70% alcohol and place on a sterile drape. A sterile scalpel blade is used to make a midline scalp incision beginning from a point even with the eyes and extending back to and imaginary line connecting the ear. The fascia should be gently split and pulled away by from the scalp. The incision can be held open using retractors/forceps. […]

In the next experiment the test system is cold allodynia. As to the kind of experiment: Spinal nerve injury (SNI) model, acetone test. The class given is in vivo, rat. The text has this: The SNI model of neuropathic pain was developed in rats using the procedure described by Decostered and Woolf, Pain 2000, 87: 149-158. Under isoflurane anesthesia, the skin on the lateral surface of the thigh was incised and a section was made directly through the biceps femoris muscle exposing the sciatic nerve and its three terminal branches: the sural, common peroneal and tibial nerves. The common peroneal and the tibial nerves were tight-ligated with 6-0 suture and sectioned distal to the ligation, removing 2-4 mm of the distal nerve stump. Extreme care was taken to avoid any contact with or stretching of the intact sural nerve. Following surgery, hemostasis was confirmed and the muscles were sutured in layers using 4-0 suture and the skin was closed with 4-0 suture and metal clips. Cold allodynia was assessed by using the acetone test. In this test, 25 μl of acetone is sprayed on to the plantar surface of the hind paw. Evaporation of acetone causes cooling of the skin. The cold stimulus sets up nociceptive responses from the injured paw as evidenced by paw lifting, paw licking and grooming. The duration of the nociceptive responses is noted.

In the next experiment the test system is mechanical allodynia. The experiment is described as follows: Spinal nerve injury (SNI) model, Von Frey test. The class given is in vivo, rat. The conditions noted are these: 60 mg/kg i.p. The text has this: The SNI model of neuropathic pain was developed in rats using the procedure described by Decostered and Woolf, Pain 2000, 87: 149-158. Under isoflurane anesthesia, the skin on the lateral surface of the thigh was incised and a section was made directly through the biceps femoris muscle exposing the sciatic nerve and its three terminal branches: the sural, common peroneal and tibial nerves. The common peroneal and the tibial nerves were tight-ligated with 6-0 suture and sectioned distal to the ligation, removing 2-4 mm of the distal nerve stump. Extreme care was taken to avoid any contact with or stretching of the intact sural nerve. Following surgery, hemostasis was confirmed and the muscles were sutured in layers using 4-0 suture and the skin was closed with 4-0 suture and metal clips. Male, Sprague-Dawley rats were used. Testing of compounds was done 21 days post-operatively. After initial basal readings were taken, the test compound or vehicle was administered. The readings were taken again 30, 60 and 180 min after the compound/vehicle administration. Both the control (uninjured) and the SNI paw were tested. The presence of mechanical allodynia was assessed using the Dynamic Plantar Aesthesiometer (Ugo Basile, Italy) which is a modified version of the Von Frey Hair test. […] A single reading was taken per time point. […]

In the case of `C[C@@H](Oc1cc(Cl)cc(C(F)(F)F)c1)C(N)=O` [I(D), (2R)-2-[3-chloro-5-(trifluoromethyl)-phenoxy]propanamide], the “Duration (sec) ± SD (afterdischarge)” value in experiment [1] (10 mg/kg i.p.) was 158.5 ± 21.5 s; in experiment [1] (25 mg/kg i.p.), 71.0 ± 13.61 s; in experiment [1] (37.5 mg/kg i.p.), 54.2 ± 10.38 s; in experiment [1] (50 mg/kg i.p.), 71.0 ± 13.61 s. The “N/F, number of animals active over the number tested” value in experiment [1] (10 mg/kg i.p.) is recorded as 0/2; in experiment [1] (25 mg/kg i.p.), 1/5; in experiment [1] (37.5 mg/kg i.p.), 3/5; in experiment [1] (50 mg/kg i.p.), 6/6. The “Seizure Score ± SEM” value in experiment [1] (10 mg/kg i.p.) is given as 5 ± 0.0; in experiment [1] (25 mg/kg i.p.), 4.4 ± 0.6; in experiment [1] (37.5 mg/kg i.p.), 3.2 ± 0.75; in experiment [1] (50 mg/kg i.p.) it was 0.83 ± 0.17. Further, in experiment [1] (i.p., LTG-resistant kindled rats), the “EC50, reduction of seizure score (seizure severity)” value amounted to 32.55 ± 3.58 mg/kg.
For the molecule `NC(=O)COc1cc(C(F)(F)F)cc(C(F)(F)F)c1` [I(F), 2-[3,5 bis(trifluoromethyl)-phenoxy]acetamide;], the “cold allodynia in the neuropathic rats” value in the experiment on cold allodynia is “significantly reduced”. In addition, in the experiment with mechanical allodynia, the “mechanical allodynia in the denervated paw, Von Frey test” value is “effective”.
